Experiments:
TK-10 (renal cancer) = assay: NCI 60-cell one-dose antiproliferative screen; assay type: cell-based, human; details: one dose 10 μM
CAKI-1 (renal cancer) = assay: NCI 60-cell one-dose antiproliferative screen; assay type: cell-based, human; details: one dose 10 μM
HCC-2998 (colon cancer) = assay: NCI 60-cell one-dose antiproliferative screen; assay type: cell-based, human; details: one dose 10 μM
[1] = test system: NCI-H322M (NSC lung cancer); assay: NCI 60-cell one-dose antiproliferative screen; assay type: cell-based, human; details: one dose 10 μM
[2] = test system: NCI-H23 (NSC lung cancer); assay: NCI 60-cell one-dose antiproliferative screen; assay type: cell-based, human; details: one dose 10 μM
[3] = test system: NCI-H460 (NSC lung cancer); assay: NCI 60-cell one-dose antiproliferative screen; assay type: cell-based, human; details: one dose 10 μM
HOP-92 (NSC lung cancer) = assay: NCI 60-cell one-dose antiproliferative screen; assay type: cell-based, human; details: one dose 10 μM
RPMI-8226 (leukemia) = assay: NCI 60-cell one-dose antiproliferative screen; assay type: cell-based, human; details: one dose 10 μM
UACC-62 (melanoma) = assay: NCI 60-cell one-dose antiproliferative screen; assay type: cell-based, human; details: one dose 10 μM
SK-MEL-2 (melanoma) = assay: NCI 60-cell one-dose antiproliferative screen; assay type: cell-based, human; details: one dose 10 μM
[4] = test system: NCI/ADR-RES (ovarian cancer); assay: NCI 60-cell one-dose antiproliferative screen; assay type: cell-based, human; details: one dose 10 μM
[5] = test system: A549/ATCC (NSC lung cancer); assay: NCI 60-cell one-dose antiproliferative screen; assay type: cell-based, human; details: one dose 10 μM
OVCAR-3 (ovarian cancer) = assay: NCI 60-cell one-dose antiproliferative screen; assay type: cell-based, human; details: one dose 10 μM
ACHN (renal cancer) = assay: NCI 60-cell one-dose antiproliferative screen; assay type: cell-based, human; details: one dose 10 μM
MDA-MB-435 (melanoma) = assay: NCI 60-cell one-dose antiproliferative screen; assay type: cell-based, human; details: one dose 10 μM
SF-539 (CNS cancer) = assay: NCI 60-cell one-dose antiproliferative screen; assay type: cell-based, human; details: one dose 10 μM
786-0 (renal cancer) = assay: NCI 60-cell one-dose antiproliferative screen; assay type: cell-based, human; details: one dose 10 μM
HCT-116 (colon cancer) = assay: NCI 60-cell one-dose antiproliferative screen; assay type: cell-based, human; details: one dose 10 μM
MALME-3M (melanoma) = assay: NCI 60-cell one-dose antiproliferative screen; assay type: cell-based, human; details: one dose 10 μM
T-47D (breast cancer) = assay: NCI 60-cell one-dose antiproliferative screen; assay type: cell-based, human; details: one dose 10 μM
SF-268 (CNS cancer) = assay: NCI 60-cell one-dose antiproliferative screen; assay type: cell-based, human; details: one dose 10 μM
HT29 (colon cancer) = assay: NCI 60-cell one-dose antiproliferative screen; assay type: cell-based, human; details: one dose 10 μM
EKVX (NSC lung cancer) = assay: NCI 60-cell one-dose antiproliferative screen; assay type: cell-based, human; details: one dose 10 μM
[6] = test system: 60 human tumor cell lines; assay: NCI 60-cell one-dose antiproliferative screen, whole panel; assay type: cell-based
SN12C (renal cancer) = assay: NCI 60-cell one-dose antiproliferative screen; assay type: cell-based, human; details: one dose 10 μM
[7] = test system: NCI-H522 (NSC lung cancer); assay: NCI 60-cell one-dose antiproliferative screen; assay type: cell-based, human; details: one dose 10 μM
SNB-19 (CNS cancer) = assay: NCI 60-cell one-dose antiproliferative screen; assay type: cell-based, human; details: one dose 10 μM
SNB-75 (CNS cancer) = assay: NCI 60-cell one-dose antiproliferative screen; assay type: cell-based, human; details: one dose 10 μM
[8] = test system: MDA-MB-231/ATCC (breast cancer); assay: NCI 60-cell one-dose antiproliferative screen; assay type: cell-based, human; details: one dose 10 μM
[9] = test system: MDA-MB-468 (breast cancer); assay: NCI 60-cell one-dose antiproliferative screen; assay type: cell-based, human; details: one dose 10 μM
KM12 (colon cancer) = assay: NCI 60-cell one-dose antiproliferative screen; assay type: cell-based, human; details: one dose 10 μM
CCRF-CEM (leukemia) = assay: NCI 60-cell one-dose antiproliferative screen; assay type: cell-based, human; details: one dose 10 μM
U251 (CNS cancer) = assay: NCI 60-cell one-dose antiproliferative screen; assay type: cell-based, human; details: one dose 10 μM
DU-145 (prostate cancer) = assay: NCI 60-cell one-dose antiproliferative screen; assay type: cell-based, human; details: one dose 10 μM
OVCAR-4 (ovarian cancer) = assay: NCI 60-cell one-dose antiproliferative screen; assay type: cell-based, human; details: one dose 10 μM
SK-OV-3 (ovarian cancer) = assay: NCI 60-cell one-dose antiproliferative screen; assay type: cell-based, human; details: one dose 10 μM
HCT-15 (colon cancer) = assay: NCI 60-cell one-dose antiproliferative screen; assay type: cell-based, human; details: one dose 10 μM
RXF 393 (renal cancer) = assay: NCI 60-cell one-dose antiproliferative screen; assay type: cell-based, human; details: one dose 10 μM
A498 (renal cancer) = assay: NCI 60-cell one-dose antiproliferative screen; assay type: cell-based, human; details: one dose 10 μM
COLO-205 (colon cancer) = assay: NCI 60-cell one-dose antiproliferative screen; assay type: cell-based, human; details: one dose 10 μM
[10] = test system: NCI-H226 (NSC lung cancer); assay: NCI 60-cell one-dose antiproliferative screen; assay type: cell-based, human; details: one dose 10 μM
IGROV1 (ovarian cancer) = assay: NCI 60-cell one-dose antiproliferative screen; assay type: cell-based, human; details: one dose 10 μM
UACC-257 (melanoma) = assay: NCI 60-cell one-dose antiproliferative screen; assay type: cell-based, human; details: one dose 10 μM
UO-31 (renal cancer) = assay: NCI 60-cell one-dose antiproliferative screen; assay type: cell-based, human; details: one dose 10 μM
SK-MEL-28 (melanoma) = assay: NCI 60-cell one-dose antiproliferative screen; assay type: cell-based, human; details: one dose 10 μM
MCF7 (breast cancer) = assay: NCI 60-cell one-dose antiproliferative screen; assay type: cell-based, human; details: one dose 10 μM
HS 578T (breast cancer) = assay: NCI 60-cell one-dose antiproliferative screen; assay type: cell-based, human; details: one dose 10 μM
SW-620 (colon cancer) = assay: NCI 60-cell one-dose antiproliferative screen; assay type: cell-based, human; details: one dose 10 μM
OVCAR-8 (ovarian cancer) = assay: NCI 60-cell one-dose antiproliferative screen; assay type: cell-based, human; details: one dose 10 μM
OVCAR-5 (ovarian cancer) = assay: NCI 60-cell one-dose antiproliferative screen; assay type: cell-based, human; details: one dose 10 μM
SF-295 (CNS cancer) = assay: NCI 60-cell one-dose antiproliferative screen; assay type: cell-based, human; details: one dose 10 μM
M14 (melanoma) = assay: NCI 60-cell one-dose antiproliferative screen; assay type: cell-based, human; details: one dose 10 μM
HOP-62 (NSC lung cancer) = assay: NCI 60-cell one-dose antiproliferative screen; assay type: cell-based, human; details: one dose 10 μM
LOX IMIV (melanoma) = assay: NCI 60-cell one-dose antiproliferative screen; assay type: cell-based, human; details: one dose 10 μM
PC-3 (prostate cancer) = assay: NCI 60-cell one-dose antiproliferative screen; assay type: cell-based, human; details: one dose 10 μM

CC(=O)NNc1ccc2nnc(-c3ccccc3)n2n1 [Compound 6a, N′-(3-Phenyl-[1,2,4]triazolo[4,3-b]pyridazin-6-yl)acetohydrazide]
GI% (TK-10 (renal cancer)): — (— GI% is below 15%) | GI% (CAKI-1 (renal cancer)): — (— GI% is below 15%) | GI% (HCC-2998 (colon cancer)): — (— GI% is below 15%) | GI% [1]: — (— GI% is below 15%) | GI% [2]: — (— GI% is below 15%) | GI% [3]: — (— GI% is below 15%) | GI% (HOP-92 (NSC lung cancer)): — (— GI% is below 15%) | GI% (RPMI-8226 (leukemia)): — (— GI% is below 15%) | GI% (UACC-62 (melanoma)): — (— GI% is below 15%) | GI% (SK-MEL-2 (melanoma)): — (— GI% is below 15%) | GI% [4]: — (— GI% is below 15%) | GI% [5]: — (— GI% is below 15%) | GI% (OVCAR-3 (ovarian cancer)): — (— GI% is below 15%) | GI% (ACHN (renal cancer)): — (— GI% is below 15%) | GI% (MDA-MB-435 (melanoma)): — (— GI% is below 15%) | GI% (SF-539 (CNS cancer)): — (— GI% is below 15%) | GI% (786-0 (renal cancer)): — (— GI% is below 15%) | GI% (HCT-116 (colon cancer)): — (— GI% is below 15%) | GI% (MALME-3M (melanoma)): — (— GI% is below 15%) | GI% (T-47D (breast cancer)): — (— GI% is below 15%) | GI% (SF-268 (CNS cancer)): — (— GI% is below 15%) | GI% (HT29 (colon cancer)): — (— GI% is below 15%) | GI% (EKVX (NSC lung cancer)): — (— GI% is below 15%) | inhibition at 10 µM ([6]; Homo sapiens, 60 cell, read-out: Mean inhibition (mean GI%)): < 15% | cytotoxic activity in words ([6]; NCI-60 panel, one dose 10 μM): demolished cytotoxicity | GI% (SN12C (renal cancer)): — (— GI% is below 15%) | GI% [7]: — (— GI% is below 15%) | GI% (SNB-19 (CNS cancer)): — (— GI% is below 15%) | GI% (SNB-75 (CNS cancer)): — (— GI% is below 15%) | GI% [8]: — (— GI% is below 15%) | GI% [9]: — (— GI% is below 15%) | GI% (KM12 (colon cancer)): — (— GI% is below 15%) | GI% (CCRF-CEM (leukemia)): — (— GI% is below 15%) | GI% (U251 (CNS cancer)): — (— GI% is below 15%) | GI% (DU-145 (prostate cancer)): — (— GI% is below 15%) | GI% (OVCAR-4 (ovarian cancer)): — (— GI% is below 15%) | GI% (SK-OV-3 (ovarian cancer)): — (— GI% is below 15%) | GI% (HCT-15 (colon cancer)): — (— GI% is below 15%) | GI% (RXF 393 (renal cancer)): — (— GI% is below 15%) | GI% (A498 (renal cancer)): — (— GI% is below 15%) | GI% (COLO-205 (colon cancer)): — (— GI% is below 15%) | GI% [10]: — (— GI% is below 15%) | GI% (IGROV1 (ovarian cancer)): — (— GI% is below 15%) | GI% (UACC-257 (melanoma)): — (— GI% is below 15%) | GI% (UO-31 (renal cancer)): — (— GI% is below 15%) | GI% (SK-MEL-28 (melanoma)): — (— GI% is below 15%) | GI% (MCF7 (breast cancer)): — (— GI% is below 15%) | GI% (HS 578T (breast cancer)): — (— GI% is below 15%) | GI% (SW-620 (colon cancer)): — (— GI% is below 15%) | GI% (OVCAR-8 (ovarian cancer)): — (— GI% is below 15%) | GI% (OVCAR-5 (ovarian cancer)): — (— GI% is below 15%) | GI% (SF-295 (CNS cancer)): — (— GI% is below 15%) | GI% (M14 (melanoma)): — (— GI% is below 15%) | GI% (HOP-62 (NSC lung cancer)): — (— GI% is below 15%) | GI% (LOX IMIV (melanoma)): — (— GI% is below 15%) | GI% (PC-3 (prostate cancer)): — (— GI% is below 15%)

— PMC11420776 (RSC Advances, 2024)
